Legend:
[1] = tested on: Duplex (DNA, duplex) CAATCGGATCGAATTCGATCCGATTG; assay: CD melting; conditions: 2 mM K+ (KCl); 10 mM Tris-HCl pH 7.4, 50 µM drug, 5 µM DNA
[2] = tested on: bcl2 (DNA, G4) AGGGGCGGGCGCGGGAGGAAGGGGGCGGA; assay: CD melting; conditions: 2 mM K+ (KCl); 10 mM Tris-HCl pH 7.4, 50 µM drug, 5 µM DNA
[3] = tested on: c-myc (DNA, G4) TGAGGGTGGGTAGGGTGGGTAA; assay: 1H NMR imino titration; conditions: 2 mM K+ (KCl), 100 µM DNA, H2O/D2O 90/10, 25 °C
[4] = tested on: KRAS (DNA, G4) GGGAGGGAGGGAAGGAGGGAGGGAGGGA; assay: CD melting; conditions: 2 mM K+ (KCl); 10 mM Tris-HCl pH 7.4, 50 µM drug, 5 µM DNA
[5] = tested on: c-myc (DNA, G4) TGAGGGTGGGTAGGGTGGGTAA; assay: CD melting; conditions: 2 mM K+ (KCl); 10 mM Tris-HCl pH 7.4, 50 µM drug, 5 µM DNA
[6] = tested on: c-kit (DNA, G4) CGGGCGGGCGCGAGGGAGGGG; assay: CD melting; conditions: 2 mM K+ (KCl); 10 mM Tris-HCl pH 7.4, 50 µM drug, 5 µM DNA
[7] = tested on: VEGF (DNA, G4) CCCGGGGCGGGCCGGGGGCGGGGTCCCGGCGGGGCGGAG; assay: CD melting; conditions: 2 mM K+ (KCl); 10 mM Tris-HCl pH 7.4, 50 µM drug, 5 µM DNA
[8] = tested on: labeled c-myc (DNA, G4) TGAGGGTGGGTAGGGTGGGTAA; assay: FRET melting; conditions: 2 mM K+ (KCl); 2 µM HCQ, ~25 nM DNA

binding [1]	ΔTm [2]	binding ([3]; 5' end stacking)	ΔTm [4]	ΔTm [5]	ΔTm [6]	ΔTm [7]	Tm increase [8]	binding [3]	SMILES
no									CCN(CC)CCCC(C)Nc1ccnc2cc(Cl)ccc12 (stereo not shown)
no	7 °C	yes	12 °C	~ 17 °C	11 °C	9 °C	~ 12 °C		CCN(CCO)CCCC(C)Nc1ccnc2cc(Cl)ccc12 (stereo not shown)
								yes	Nc1ccnc2cc(Cl)ccc12

From publication PMC12554177 (2025)
